The results in this text go back to patent publication US20230114459A1, “Composition for Use in the Prophylaxis and Treatment of Viral Infections of the Asfarviridae Family” (priority 2020, published 2023).

Data set [1] has as its system Vero cells infected with virus particles.
For data set [2], the system named is African Swine Fever Virus (ASFV).

SMILES strings stand for the structures.

For `CCCCCC(=O)O` [100% C6, caproic acid], in data set [1], the “CPE (first test)” value is recorded as 3/3 and the “CPE (second test)” value is on record as 3/3.
`CCCCCCCC(=O)O` [100% C8, caprylic acid]: in data set [1], the “CPE (first test)” value is recorded as 2/2, the “CPE (second test)” value is recorded as 2/2 and the “Visual scoring of protection against the cytopathic effect of the virus” value is “scored best”.
Consider `CCCCCCCCC(=O)O` [100% C9, pelargonic acid], for which, in data set [1], the “CPE (first test)” value is given as 2/2 and the “CPE (second test)” value is 2/2.
In the case of `CCCCCCCCCC(=O)O` [100% C10, capric acid], in data set [1], the “CPE (first test)” value is given as 2/4 and the “CPE (second test)” value is recorded as 2/4.
As to `CCCCCCCCCCCC(=O)O` [100% C12, lauric acid], the “Solubility in the test solution” value in data set [1] was “solubility issue was observed”.
In the case of `CCCCCCCC(=O)O` [Composition F1, caprylic acid], the “Cq value for ASFV compared to positive control” value in data set [2] was “significantly increase the Cq value”.
